Results: patent US20160038526A1, “TREATMENT OF PROSTATE CANCER” (THOMAS JEFFERSON UNIVERSITY, priority 2012, published 2016)

What was measured:
LNCaP cells = test: Cell viability, MTS metabolic activity assay, LNCaP; assay type: cell-based, human; conditions: 72 hours
Method: CWR22Rv1 prostate cancer cells were treated with N6BAP or the control compound C5 (Ctrl) at 25 μM concentration or vehicle for 24 h. Following trypan blue exclusion, the attached viable vs. de-attached dead cells were counted. […] The bars indicate mean±SD of triplicate wells. In another assay, CWR22Rv1, LNCaP and DU145 cells were treated with N6BAP, the control compound C5 (Ctrl) or vehicle at indicated concentrations. The fraction of alive cells was determined by MTS ([…]) metabolic activity assay (CellTiter 96® AQueous Assay kit). The results are shown in FIGS. 9C, 9D and 9E, respectively.

Stat5 = target: T1, Stat5 (Homo sapiens, UniProt P42229); test: Prolactin-induced Stat5 phosphorylation in CWR22Rv1 cells (immunoprecipitation/Western blot); assay type: cell-based; conditions: CWR22Rv1 cells, 25, 50 and 100 μM for 2 h, 10 nM Prl 30 minutes
T1 construct: endogenous in cells; host or cells: CWR22Rv1
Method: CWR22Rv1 cells were starved for 24 h in serum-free medium, treated N6BAP at 25, 50 and 100 μM concentrations for 2 h, followed by stimulation with 10 nM Prl for 30 minutes. Stat5a and Jak2 were immunoprecipitated with anti-Stat5a or anti-Jak2 pAbs. Immunoprecipitates of CWR22Rv1 cells were blotted with anti-PYStat5, anti-Stat5a/b mAb or anti-PY mAb (for Jak2). Whole cell lysates were immunoblotted with anti-actin pAb for loading control. Because SH2-domain of Stat5 mediates the recruitment of Stat5 to the Prl-receptor-Jak2-complex and Stat5 phosphorylation, N6BAP inhibits Prl-induced phosphorylation of Stat5.
The protocol in more detail comprised the following. Cell pellets were solubilized in lysis buffer [10 mM Tris-HCl (pH 7.6), 5 mM EDTA, 50 mM sodium chloride, 30 mM sodium pyrophosphate, 50 mM sodium fluoride, 1 mM sodium orthovanadate, 1% Triton X-100, 1 mM phenylmethylsulfonyl fluoride, 5 μg/mlaprotinin, 1 μg/ml pepstatin A, and 2 μg/ml leupeptin], rotated end-over-end at 4° C. for 60 min, and insoluble material was pelleted at 12,000×g for 30 min at 4° C. The protein concentrations of clarified cell lysates were determined by simplified Bradford method (Bio-Rad Laboratories, Hercules, Calif.). Stat5a, Stat5b and Jak2 were immunoprecipitated from whole cell lysates with anti-Stat5a, anti-Stat5b (4 μl/ml; Millipore, Billerica, Mass.) or anti-Jak2 (Millipore) pAbs. […]

Stat5a = target: T2, Stat5a (Homo sapiens, UniProt P42229); test: Stat5 dimerization assay (FLAG-/MYC-tagged Stat5a co-immunoprecipitation) in PC-3 cells; assay type: cell-based; set-up: expressed in transfected cells; host or cells: PC-3; conditions: 2 hours pretreatment, hPrl 10 nM 30 minutes
T2 sequence (P42229 1-794): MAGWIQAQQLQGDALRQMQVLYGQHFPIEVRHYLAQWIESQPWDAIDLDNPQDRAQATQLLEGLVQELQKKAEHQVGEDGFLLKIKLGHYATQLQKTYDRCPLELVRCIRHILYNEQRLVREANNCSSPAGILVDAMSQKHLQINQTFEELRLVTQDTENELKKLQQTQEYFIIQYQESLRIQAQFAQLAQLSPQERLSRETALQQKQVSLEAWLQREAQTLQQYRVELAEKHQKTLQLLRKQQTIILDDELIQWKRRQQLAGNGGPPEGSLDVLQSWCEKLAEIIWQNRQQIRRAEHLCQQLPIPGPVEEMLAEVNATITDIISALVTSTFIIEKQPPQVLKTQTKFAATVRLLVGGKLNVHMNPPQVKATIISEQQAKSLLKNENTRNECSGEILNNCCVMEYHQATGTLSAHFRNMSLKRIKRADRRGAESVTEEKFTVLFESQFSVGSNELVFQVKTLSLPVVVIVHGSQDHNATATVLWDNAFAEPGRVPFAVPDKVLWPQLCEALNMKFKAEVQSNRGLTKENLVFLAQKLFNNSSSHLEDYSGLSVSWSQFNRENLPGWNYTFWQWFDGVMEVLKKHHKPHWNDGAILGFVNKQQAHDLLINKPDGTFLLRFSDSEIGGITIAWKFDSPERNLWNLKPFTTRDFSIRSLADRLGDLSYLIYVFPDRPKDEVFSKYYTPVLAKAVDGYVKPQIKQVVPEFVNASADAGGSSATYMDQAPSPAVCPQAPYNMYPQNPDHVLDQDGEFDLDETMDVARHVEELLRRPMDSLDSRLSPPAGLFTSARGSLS
Method: FLAG-tagged Stat5a and MYC-tagged Stat5a were generated as follows. Plasmid pCMV3-FLAG-Stat5a, pCMV3-MYC-Stat5a and pPrlR were co-transfected using FuGENE6 (Roche) into PC-3 cells (2 μg of each plasmid per 1×10^7 cells). The cells were starved for 20 hours, pretreated with N6BAP for 2 hours, then stimulated with hPrl (10 nM) in RPMI 1640 without serum for 30 minutes. The cell lysates were immunoprecipitated with 25 μl anti-FLAG M2 […] affinity gel (2 μg/ml, Sigma), anti-MYC pAb (1 μg/ml, Upstate) or normal rabbit serum (NRS). The primary antibodies were used in the immunoblottings at the following concentrations: anti-FLAG pAb (1:1000; Stratagene), anti-MYC mAb (1:1000; Sigma), anti-Stat5a/b mAb (1:250) (Transduction Laboratories) detected by horseradish peroxidase-conjugated secondary antibodies.
Lanes 1, 2, 4, 6, 8, 10, 12, 14 and 16 represent cells stimulated with human prolactin (Prl) for 30 minutes which induces dimerization of Stat5. Two hours prior to Prl-stimulation, the cells had been treated with DMSO (lanes 1-4), the control compound C5 (lanes 5 and 6) or N6BAP (lanes 7-16) to test whether the Stat5a/b-inhibitor compound, N6BAP, would be able to inhibit dimerization of Stat5. […] It should be noted the drug effect in this study was not due to cell apoptosis induction, as the treatment time was only 2 hours. […]

Prl-induced phosphorylation of Stat5 (Stat5): inhibits Stat5 phosphorylation
SMILES: O=P(O)(O)OC[C@H]1O[C@@H](n2cnc3c(NCc4ccccc4)ncnc32)[C@H](O)[C@@H]1O [N6BAP, N^6-benzyladenosine-5′-monophosphate]
number of viable cells (LNCaP cells): decreases the number of viable cells
dimerization of Stat5a (Stat5a): effectively inhibited Stat5a dimerization
